pIC50: −log10 of the molar value.
Experiments:
[1] = test system: CHL-1 cells; assay: Cell proliferation assay CHL-1 (alamarBlue); format: cell-based; settings: Homo sapiens, melanoma (BRAF wild-type) cells, 96 hours
Protocol: (§1) In accordance with the invention, the ability of the substances to inhibit cell proliferation was determined. Cell viability was determined by means of the alamarBlue® reagent (Invitrogen) in a Victor X3 Multilabel Reader (Perkin Elmer). The excitation wavelength was 530 nm and the emission wavelength […].
The CHL-1 cells (ATCC, CRL-9446) were seeded at a concentration of 1000 cells/well in 100 μl of growth medium (DMEM with glutamine, 10% FCS) on 96-well microtitre plates.
(§2) After overnight incubation at 37° C., the fluorescence values (CI values) were determined. Then the plates were treated with various substance dilutions (1E-5 M, 3E-6 M, 1E-6 M, 3E-7 M, 1E-7 M, 3E-8 M, 1E-8 M) and incubated at 37° C. over 96 hours (MOLM-13, B16F10, CHL-1 cells) or 120 hours (MOLP-8 cells). Subsequently, the fluorescence values were determined (CO values). For the data analysis, the CI values were subtracted from the CO values and the results were compared between cells which had been treated with various dilutions of the substance or only with buffer solution. The IC50 values (substance concentration needed for 50% inhibition of cell proliferation) were calculated therefrom.
(§3) The substances were tested in the cell lines in Table 2, which represent the indications specified by way of example: […]

[2] = target: T1, BRD4 bromo domain 1 [BRD4(1)] (Homo sapiens, UniProt O60885); assay: BRD4(1)/acetylated peptide H4 TR-FRET binding assay; settings: His6-BRD4(1) (aa 67-152) vs acetylated histone H4 peptide
T1 construct: N-terminally His6-tagged BRD4(1) (amino acids 67-152); made in house; host or cells: E. coli
From the text: To assess the BRD4(1) binding strength of the substances described in this application, the ability thereof to inhibit the interaction between BRD4(1) and acetylated histone H4 in a dose-dependent manner was quantified.
For this purpose, a time-resolved fluorescence resonance energy transfer (TR-FRET) assay was used, which measures the binding between N-terminally His6-tagged BRD4(1) (amino acids 67-152) and a synthetic acetylated histone H4 (Ac-H4) peptide with sequence GRGK(Ac)GGK(Ac)GLGK(Ac)GGAK(Ac)RHGSGSK-biotin. The recombinant BRD4(1) protein produced in-house according to Filippakopoulos et al., Cell, 2012, 149:214-231 was expressed in E. coli and purified by means of (Ni-NTA) affinity and (Sephadex G-75) size exclusion chromatography. The Ac-H4 peptide can be purchased, for example, from Biosyntan (Berlin, Germany).
In the assay, typically 11 different concentrations of each substance (0.1 nM, 0.33 nM, 1.1 nM, 3.8 nM, 13 nM, 44 nM, 0.15 μM, 0.51 μM, 1.7 μM, 5.9 μM and 20 μM) were analysed as duplicates on the same microtitre plate. For this purpose, 100-fold concentrated solutions in DMSO were prepared by serial dilutions (1:3.4) of a 2 mM stock solution into a clear, 384-well microtitre plate (Greiner Bio-One, Frickenhausen, Germany). From this, 50 nl were transferred into a black test plate (Greiner Bio-One, Frickenhausen, Germany). The test was started by the addition of 2 μl of a 2.5-fold concentrated BRD4(1) solution (final concentration typically 10 nM in the 5 μl of reaction volume) in aqueous assay buffer [50 mM HEPES pH 7.5, 50 mM sodium chloride (NaCl), 0.25 mM CHAPS and 0.05% serum albumin (BSA)] to the substances in the test plate. This was followed by a 10-minute incubation step at 22° C. for the pre-equilibration of putative complexes between BRD4(1) and the substances. Subsequently, 3 μl of a solution of 1.67 times the concentration (in assay buffer) consisting of Ac-H4 peptide (83.5 nM) and TR-FRET detection reagents [16.7 nM anti-6His-XL665 and 3.34 nM streptavidin cryptate (both from Cisbio Bioassays, Codolet, France), and 668 mM potassium fluoride (KF)] were added.
The mixture was then incubated in the dark at 22° C. for one hour and then at 4° C. for at least 3 hours and for no longer than overnight. The formation of BRD4(1)/Ac-H4 complexes was determined by the measurement of the resonance energy transfer from the streptavidin-Eu cryptate to the anti-6His-XL665 antibody present in the reaction. For this purpose, the fluorescence emission was measured at 620 nm and 665 nm after excitation at 330-350 nm in a TR-FRET measuring instrument, for example a Rubystar or Pherastar (both from BMG Lab Technologies, Offenburg, Germany) or a Viewlux (Perkin-Elmer). The ratio of the emissions at 665 nm and at 622 nm was taken as an indicator of the amount of BRD4(1)/Ac-H4 complexes formed.
The data (ratios) obtained were normalized, with 0% inhibition corresponding to the mean from the measurements for a set of controls (typically 32 data points) in which all the reagents were present. In these, in place of test substances, 50 nl of DMSO (100%) were used. Inhibition of 100% corresponded to the mean from the measurements for a set of controls (typically 32 data points) in which all the reagents except BRD4(1) were present. The IC50 was determined by regression analysis based on a 4-parameter equation (minimum, maximum, IC50, Hill; Y=Max+(Min−Max)/(1+(X/IC50)Hill).

[3] = test system: MOLP-8 cells; assay: Cell proliferation assay MOLP-8 (alamarBlue); format: cell-based; settings: Homo sapiens, multiple myeloma cells, 120 hours
Protocol: as §1
The MOLP-8 cells (DSMZ, ACC 569) were seeded at a concentration of 4000 cells/well in 100 μl of growth medium (RPMI1640, 20% FCS) on 96-well microtitre plates.
as §2, §3

SMILES	pIC50 [2]	pIC50 [1]	pIC50 [3]
COc1ccc(S(=O)(=O)C2CC2)cc1Nc1ccc2c(n1)N(C1CCN(C)CC1)[C@H](C)C(=O)N2C [Example 12, (3R)-6-{[5-(Cyclopropylsulphonyl)-2-methoxyphenyl]amino}-1,3-dimethyl-4-(1-methylpiperidin-4-yl)-3,4-dihydropyrido[2,3-b]pyrazin-2(1H)-one]	7.72	7.89	7.66
C[C@@H]1C(=O)N(C)c2ccc(Nc3ccc4c(c3)S(=O)(=O)CC4)nc2N1C1CCOCC1 [Example 4, (3R)-6-[(1,1-Dioxido-2,3-dihydro-1-benzothiophen-6-yl)amino]-1,3-dimethyl-4-(tetrahydro-2H-pyran-4-yl)-3,4-dihydropyrido[2,3-b]pyrazin-2(1H)-one]	7.03	6.71	6.66
CC(C)S(=O)(=O)c1cccc(Nc2ccc3c(n2)N(C2CCN(C)CC2)[C@H](C)C(=O)N3C)c1 [Example 19, (3R)-6-{[3-(Isopropylsulphonyl)phenyl]amino}-1,3-dimethyl-4-(1-methylpiperidin-4-yl)-3,4-dihydropyrido[2,3-b]pyrazin-2(1H)-one]	7.82	7.77	–
COc1ccc(S(=O)(=O)C(C)C)cc1Nc1ccc2c(n1)N(C1CCNCC1)[C@H](C)C(=O)N2C [Example 26, (3R)-6-{[5-(Isopropylsulphonyl)-2-methoxyphenyl]amino}-1,3-dimethyl-4-(piperidin-4-yl)-3,4-dihydropyrido[2,3-b]pyrazin-2(1H)-one]	7.72	7.66	–
CC(C)S(=O)(=O)c1ccc(OC(F)(F)F)c(Nc2ccc3c(n2)N(C2CCN(C)CC2)[C@H](C)C(=O)N3C)c1 [Example 20, (3R)-6-{[5-(Isopropylsulphonyl)-2-(trifluoromethoxy)phenyl]amino}-1,3-dimethyl-4-(1-methylpiperidin-4-yl)-3,4-dihydropyrido[2,3-b]pyrazin-2(1H)-one]	7.74	7.70	–
COc1ccc(S(=O)(=O)C(F)(F)F)cc1Nc1ccc2c(n1)N(C1CCN(C)CC1)[C@H](C)C(=O)N2C [Example 21, (3R)-6-({2-Methoxy-5-[(trifluoromethyl)sulphonyl]phenyl}amino)-1,3-dimethyl-4-(1-methylpiperidin-4-yl)-3,4-dihydropyrido[2,3-b]pyrazin-2(1H)-one]	7.64	7.80	–
COc1ccc(S(=O)(=O)C2CCOCC2)cc1Nc1ccc2c(n1)N(C1CCN(C)CC1)[C@H](C)C(=O)N2C [Example 22, (3R)-6-{[2-Methoxy-5-(tetrahydro-2H-pyran-4-ylsulphonyl)phenyl]amino}-1,3-dimethyl-4-(1-methylpiperidin-4-yl)-3,4-dihydropyrido[2,3-b]pyrazin-2(1H)-one]	7.64	7.68	–
COc1ccc(S(C)(=O)=O)cc1Nc1ccc2c(n1)N(C1CCNCC1)[C@H](C)C(=O)N2C [Example 27, (3R)-6-{[2-Methoxy-5-(methylsulphonyl)phenyl]amino}-1,3-dimethyl-4-(piperidin-4-yl)-3,4-dihydropyrido[2,3-b]pyrazin-2(1H)-one]	7.27	6.51	–
COc1ccc(S(=O)(=O)C(C)C)cc1Nc1ccc2c(n1)N(C1CCN(CC(F)(F)F)CC1)[C@H](C)C(=O)N2C [Example 28, (3R)-6-{[5-(Isopropylsulphonyl)-2-methoxyphenyl]amino}-1,3-dimethyl-4-[1-(2,2,2-trifluoroethyl)piperidin-4-yl]-3,4-dihydropyrido[2,3-b]pyrazin-2(1H)-one]	7.62	7.60	–

Now from value to compound, other results behind:

pIC50 [2]	SMILES	pIC50 [1]	pIC50 [3]
7.35	CC(C)S(=O)(=O)c1ccc(OC(F)(F)F)c(Nc2ccc3c(n2)N(C2CCOCC2)[C@H](C)C(=O)N3C)c1 [Example 38, (3R)-6-{[5-(Isopropylsulphonyl)-2-(trifluoromethoxy)phenyl]amino}-1,3-dimethyl-4-(tetrahydro-2H-pyran-4-yl)-3,4-dihydropyrido[2,3-b]pyrazin-2(1H)-one]	7.62	–
7.62	COc1ccc(S(=O)(=O)C(C)C)cc1Nc1ccc2c(n1)N(C1CCN(CC(F)F)CC1)[C@H](C)C(=O)N2C [Example 29, (3R)-4-[1-(2,2-Difluoroethyl)piperidin-4-yl]-6-{[5-(isopropylsulphonyl)-2-methoxyphenyl]amino}-1,3-dimethyl-3,4-dihydropyrido[2,3-b]pyrazin-2(1H)-one]	–	–
7.20	COc1cc(Nc2ccc3c(n2)N(C2CCOCC2)[C@H](C)C(=O)N3C)cc(S(C)(=O)=O)c1 [Example 40, (3R)-6-{[3-Methoxy-5-(methylsulphonyl)phenyl]amino}-1,3-dimethyl-4-(tetrahydro-2H-pyran-4-yl)-3,4-dihydropyrido[2,3-b]pyrazin-2(1H)-one]	–	–
7.49	COc1ccc(S(=O)(=O)C2CCC2)cc1Nc1ccc2c(n1)N(C1CCOCC1)[C@H](C)C(=O)N2C [Example 35, (3R)-6-{[5-(Cyclobutylsulphonyl)-2-methoxyphenyl]amino}-1,3-dimethyl-4-(tetrahydro-2H-pyran-4-yl)-3,4-dihydropyrido[2,3-b]pyrazin-2(1H)-one]	8.00	–
7.34	COc1ccc(S(=O)(=O)C(F)(F)F)cc1Nc1ccc2c(n1)N(C1CCOCC1)[C@H](C)C(=O)N2C [Example 39, (3R)-6-({2-Methoxy-5-[(trifluoromethyl)sulphonyl]phenyl}amino)-1,3-dimethyl-4-(tetrahydro-2H-pyran-4-yl)-3,4-dihydropyrido[2,3-b]pyrazin-2(1H)-one]	–	–
7.66	COc1ccc(S(=O)(=O)C2CCOCC2)cc1Nc1ccc2c(n1)N(C1CCOCC1)[C@H](C)C(=O)N2C [Example 34, (3R)-6-{[2-Methoxy-5-(tetrahydro-2H-pyran-4-ylsulphonyl)phenyl]amino}-1,3-dimethyl-4-(tetrahydro-2H-pyran-4-yl)-3,4-dihydropyrido[2,3-b]pyrazin-2(1H)-one]	7.52	–
7.64	COc1ccc(S(=O)(=O)C(C)C)cc1Nc1ccc2c(n1)N(C1CCN(CCC(F)(F)F)CC1)[C@H](C)C(=O)N2C [Example 31, (3R)-6-{[5-(Isopropylsulphonyl)-2-methoxyphenyl]amino}-1,3-dimethyl-4-[1-(3,3,3-trifluoropropyl)piperidin-4-yl]-3,4-dihydropyrido[2,3-b]pyrazin-2(1H)-one]	7.92	–

— patent US20170121322A1, “BET-PROTEIN INHIBITING 3,4-DIHYDROPYRIDO[2,3-B]PYRAZINONES WITH META-SUBSTITUTED AROMATIC AMINO- OR ETHER GROUPS” (Bayer Pharma Aktiengesellschaft, priority 2014, published 2017)
